Test results published in patent US4560557A, “Silicon and sulfur steroids as irreversible inhibitors of hormone biosynthesis” (University Patents, Inc., priority 1983, dated 1985).

Legend:
human adrenal cells = assay: ACTH-stimulated cortisol production by human adrenal cell suspensions; type: cell-based; details: for time dependence of inhibition of cortisol production: FIG. 4, FIG. 5; for inhibition of ACTH-stimulated cortisol production: human cells
Source text: (§1) Additionally data showing that the silicon and sulfur-containing compounds of the present invention are effective at halting steroid hormone biosynthesis when given at low concentrations to suspensions of human and rat adrenal cells are depicted in the following figures and table.

rat adrenal cells = assay: Time and concentration dependence of effects on ACTH-stimulated corticosterone production by rat adrenal cells; type: cell-based; details: for time dependence of inhibition of corticosterone production: FIG. 2, FIG. 3; for inhibition of ACTH-stimulated corticosterone production: rat cells
Description: as §1
Steroid was added at […]. […] At 10 μM 20 OH TMS steroid, corticosterone production is obliterated by 40 min.
Steroid was added at t=-10 min.

rat adrenocortical cells = assay: Effects of cholesterol analogues on adrenal cell corticosterone production (with or without ACTH); type: cell-based
Source text: When rat adrenocortical cells were stimulated with ACTH in the presence of the P-450 scc inhibitors of the present invention, and the production of cortiscoterone measured, less corticosterone was produced in the presence of the compounds of the present invention, then when those compounds were absent.
Corticosterone production rates by non-stimulated rat adrenal cell suspensions are approximately one-fifth those of ACTH stimulated rates. […] This property, combined with P-450 scc inhibitors with and without polar side chains was used to determine how ACTH stimulation results in increased conversion of endogenous cholesterol to corticosterone.
Cells (30,000/ml) were preincubated with steroid for 10 minutes.
Maximally stimulating levels of ACTH were then added and the
incubation continued for another 60 minutes. The incubations were
then quenched, and samples assayed for
corticosterone fluorometrically.

[1] = system: cytochrome P-450 cholesterol side chain cleavage enzyme (P-450scc); assay: P-450scc inactivation, preincubation study (pregnenolone formation from [3H]cholesterol); type: biochemical; details: NADPH and/or O2, FIG. 1: P450 1.35 μM, steroid 20 μM
Description: As mentioned previously, the compounds of the present invention are potent inhibitors of the conversion of cholesterol to pregnenolone.
The final turnover mixture contained 2.5 μM adrenodoxin, 150 nM adrenodoxin reductase, 50 mM K^+ MOPS (pH 7.2), 10 mM MgCl2, 0.2% Tween 20, 1 unit/mL catalase, a NADPH-generating system of 16 μM NADPH, 3 mM G6P, and 1 unit/mL […]. For a typical preincubation experiment, inhibitor was added as an ethanol solution (2-10 mM) into the P-450 turnover mixture at 37° C. and the reactions were started by addition of NADPH stock solution. After, 0, 5, 10, 15, 30, or 45 min. of incubation, an aliquot of this mixture (200μ) was introduced into 1.8 ml of the turnover mixture containing [1, 2-^3 H] cholesterol (100 μM 10,000 dpm/nmol). After 10 min., the reaction was terminated by acidification, and [4-^- C] prengenolone were added as an internal standard. The resulting mixture was extracted using ethyl acetate and evaporated to dryness. The product pregnenolone was separated on silica gel TLC plates (Baker-flex) using 1:1 ethyl acetate-hexane as the solvent. The product formation was determined from the ratio of ^3 H to ^14 C in the recovered pregnenolone.
The P450 concentration was 1.35 μM and the steroid was 20 μM=NADPH; 0=no inhibitor+NADPH; 0=NADPH.

[2] = FIG. 5, 10 μM for the 20(S) compound
[3] = ACTH + steroid 2 ug/ml, ACTH only = 100, 10 min preincubation, 60 min incubation

Compound	time dependence of inhibition of cortisol production (human adrenal cells)	inhibition of cortisol production (human adrenal cells; [2])	inhibition of ACTH-stimulated cortisol production (human adrenal cells)	time dependence of inhibition of corticosterone production (rat adrenal cells)	inhibition of ACTH-stimulated corticosterone production (rat adrenal cells)	CORTICOSTERONE PRODUCED (%) (rat adrenocortical cells; [3])	inhibition of cortisol production (human adrenal cells; FIG. 4)	further results
CC(C)CCS[C@@H](C)[C@H]1CC[C@H]2[C@@H]3CC=C4C[C@@H](O)CC[C@]4(C)[C@H]3CC[C@]12C [20(S)22 thiacholesterol]	probably in a time dependent manner	strongly inhibited	inhibits	only slightly time dependent	inhibits	54.1		concentration dependence of inhibition of corticosterone production (rat adrenal cells; FIG. 3): strongly concentration dependent; CORTICOSTERONE PRODUCED (%) (rat adrenocortical cells; 25 hydroxycholesterol 5 ug/ml + 20(S)22 thialcholesterol 5 ug/ml, without ACTH, ACTH only = 100, 60 min): 15.5%; corticosterone production (in words) (rat adrenocortical cells; ACTH-stimulated cells): decreased corticosterone production
22 (trimethylisilyl pregnenol)							little inhibitory effect on cortisol production	
C[C@H](CCCC(C)(C)O)[C@H]1CC[C@H]2[C@@H]3CC=C4C[C@@H](O)CC[C@]4(C)[C@H]3CC[C@]12C [25 hydroxycholesterol, reference compound]						117.0		activity at 2 µg/mL (rat adrenocortical cells; Rattus norvegicus, 1 h, steroid 2 ug/ml without ACTH, ACTH only = 100, read-out: CORTICOSTERONE PRODUCED (%)): 21.9%; activity at 5 µg/mL (rat adrenocortical cells; Rattus norvegicus, 1 h, steroid 5 ug/ml without ACTH, ACTH only = 100, read-out: CORTICOSTERONE PRODUCED (%)): 30.4%; corticosterone production rate relative to ACTH stimulated cells (rat adrenocortical cells; non-stimulated cells): as much as one-half those of ACTH stimulated cells
C[C@]12CC[C@H]3[C@@H](CC=C4C[C@@H](O)CC[C@@]43C)[C@@H]1CC[C@@H]2[C@@](C)(O)CC[Si](C)(C)C [20 OH TMS, 20-(2-Trimethylsilyl-ethyl) pregnen-3, 20a-diol]	probably in a time dependent manner		inhibits	strongly time dependent	inhibits		strongly inhibits cortisol production	loss of enzyme activity / P-450 scc inhibition [1]: P-450 scc inhibition; loss of enzyme activity / P-450 scc inhibition ([1]; listed as trimethyl silyl-containing compound): time-dependent loss of enzyme activity; corticosterone production (rat adrenal cells; 10 μM steroid, by 40 min (FIG. 2)): obliterated
CC(C)CCS[C@H](C)[C@H]1CC[C@H]2[C@@H]3CC=C4C[C@@H](O)CC[C@]4(C)[C@H]3CC[C@]12C [20(R)22 thiacholesterol]	not time dependent	inhibited slightly				117.9		
